Read-outs that look alike come from different tables or passages of the source.
Columns and labels:
[1] = tested on: R8 reporter; experiment: R8 luciferase reporter stably transfected in A549 cells; settings: for EC50: A549, read-out: pEC50, R8 reporter (converted), Schild experiments (Fig. 7D); for EMax (Fold ± SE): R8 reporter, 6 h
Description: (§2) Data were assumed to be normally distributed and, unless otherwise indicated, are presented as means ± SD with scatterplots showing individual values. With the exception of pEC50 values, numerical values in tables and text are provided to one decimal place, or where appropriate 2 significant figures of accuracy. […] Multiple comparisons were made using one-way ANOVA with Tukey’s or Dunnett’s post hoc tests, as appropriate. Comparisons between 2 groups were performed by 2-tailed, paired Student’s t test. The number of independent experiments (N) is indicated in each graph and, being exploratory, sample sizes were not prespecified. […] GraphPad Prism software (version 11; Dotmatics) and/or the R package “ggplot2” was used for graph plotting and statistical analyses. Heat maps were generated using the R package “pheatmap.” Concentration-response relationships were fitted using the 4-parameter model that assumed symmetric variance or using the Gaddum-Schild model of competitive antagonism, as described previously.[43] Variance in pEC50, EMax, or pA2 are provided by Prism as mean ±SE, whereas all curves are plotted as means ±SD (but without scatterplots).

[2] = tested on: R2 reporter; experiment: R2 luciferase reporter (BIRC3/BIRC2 locus) stably transfected in A549 cells; assay type: cell-based, human; settings: for EC50: A549, 6 h; for EC50 / EMax (Fold ± SE): R2 reporter, 6 h
Description: Data were assumed to be normally distributed and, unless otherwise indicated, are presented as means ± SD with scatterplots showing individual values. […] Multiple comparisons were made using one-way ANOVA with Tukey’s or Dunnett’s post hoc tests, as appropriate. Comparisons between 2 groups were performed by 2-tailed, paired Student’s t test. The number of independent experiments (N) is indicated in each graph and, being exploratory, sample sizes were not prespecified. […] Heat maps were generated using the R package “pheatmap.” Concentration-response relationships were fitted using the 4-parameter model that assumed symmetric variance or using the Gaddum-Schild model of competitive antagonism, as described previously.[43] Variance in pEC50, EMax, or pA2 are provided by Prism as mean ±SE, whereas all curves are plotted as means ±SD (but without scatterplots). Because all analyses were exploratory and were not designed to test prespecified statistical null hypotheses, stated P values should be viewed as being descriptive rather than as hypothesis testing.

[3] = tested on: R5 reporter; experiment: R5 luciferase reporter stably transfected in A549 cells; assay type: cell-based, human; settings: for EC50: Homo sapiens
Description: as §2

[4] = tested on: BIRC3 mRNA; experiment: qPCR of BIRC3 mRNA in A549 cells; assay type: cell-based, human; settings: for repression of IL-1β-induced BIRC3 mRNA: at 30 μM, IL-1β 2 h
Description: (§1) Following treatments, total RNA was extracted and 500 ng used for cDNA synthesis according to standard procedures.[34] After 1:5 dilution, cDNA (2.5 μL) was analyzed by qPCR (StepOnePlus, Applied […] or QuantStudio3, Thermo Fisher Scientific) with Fast SYBR Green Master Mix (4385618, Thermo Fisher Scientific). Amplification conditions and primers specific for BIRC3, BIRC2, and glyceraldehyde-3-phosphate dehydrogenase mRNAs were as described.[9] In each case, relative cDNA concentrations were obtained from standard curves generated by serial dilution of a stimulated cDNA sample that was analyzed in parallel with the experimental samples. Primer specificity was assessed by melt curve analysis where a single peak in the change of fluorescence with temperature was taken to indicate specificity.

[5] = tested on: NF-κB reporter; parameters: method as in PMID 17322026, PMID 37863662, PMID 38941070; settings: read-out: EC50, inhibition of IL-1β-induced NF-κB reporter activity; cited from earlier work
[6] = tested on: R4 reporter; experiment: R4 luciferase reporter stably transfected in A549 cells; assay type: cell-based, human; settings: Homo sapiens, A549, read-out: EC50, inhibition of IL-1β-induced R4 reporter activity
Description: as §2

[7] = tested on: BIRC2 mRNA; experiment: qPCR of BIRC2 mRNA in A549 cells; assay type: cell-based, human; settings: for effect on IL-1β-induced BIRC2 mRNA expression: concentration series, IL-1β 2 h (Fig. 6C)
Description: as §1

[8] = tested on: R8 reporter
Description: as §2

[9] = tested on: GR recruitment to FKBP5; experiment: ChIP-qPCR of GR recruitment to FKBP5 in A549 cells; assay type: cell-based, human; settings: budesonide 300 nM, 1 hour
Description: After cell treatments, formaldehyde (PI28906, Thermo Fisher Scientific) was added to a final concentration of 1% for 10 minutes. […] Following cytoplasmic and then nuclear lysis, lysates were sonicated with 30 high-power bursts in a 30 seconds on-off cycle at 4 °C using a Bioruptor (Diagenode). Antibodies: GR, GR-356,[36] RELA (NF-κB p65, D14E12, #8242, Cell Signaling Technologies); RNA polymerase 2 (RNAP2) (Rpb1 NTD D8L4Y, #14958, Cell Signaling Technologies) used for ChIP were preincubated with protein G magnetic Dynabeads (10004D, Thermo Fisher Scientific) overnight at 4 °C and beads were washed as previously described. Nuclear lysates were then incubated with the antibody-coated beads overnight prior to extensive washing. Following reversal of crosslinks, DNA was purified with a ChIP DNA Clean & Concentrator kit (D5205, Zymo Research). Fast SYBR Green Master Mix (Thermo Fisher Scientific) was used in standard quantitative polymerase chain reaction (qPCR) reactions to detect DNA regions of interest. […] Relative occupancy at each region was calculated as ΔΔ threshold cycle (CT) after normalization to the geometric mean of the threshold cycle values for 3 negative control regions (Gene symbols: OLIG3, MYOD1, and MYOG).

[10] = Homo sapiens, glucocorticoid + IL-1β (1 ng/mL)
[11] = Homo sapiens, glucocorticoid, naïve
[12] = A549, 6 h, R5 reporter, glucocorticoid + IL-1β (1 ng/mL), 6 h
[13] = A549, 6 h, R5 reporter, glucocorticoid, naïve, 6 h
[14] = R5 reporter, glucocorticoid + IL-1β (1 ng/mL), % of 1 μM dexamethasone, 6 h
[15] = R5 reporter, glucocorticoid, naïve, expressed as % of 1 μM dexamethasone, 6 h
[16] = glucocorticoid + IL-1β (1 ng/mL)

Row | Compound | EC50 [2, 10] [nM] | EC50 [2, 11] [nM] | EC50 [3, 12] [nM] | EC50 [3, 13] [nM] | EMax (% of 1 μM dexamethasone ± SE) [3, 14] | EMax (% of 1 μM dexamethasone ± SE) [3, 15] | repression of IL-1β-induced BIRC3 mRNA [4] | EC50 [5] [µM] | EC50 [6] [nM] | effect on IL-1β-induced BIRC2 mRNA expression [7] | other results
1 | C[C@@H]1C[C@H]2[C@@H]3CCC4=CC(=O)C=C[C@]4(C)[C@@]3(F)[C@@H](O)C[C@]2(C)[C@@]1(O)C(=O)CO [Dexamethasone, dexamethasone] | 10.2 | 8.51 | 10 | 11.5 | 16.3% ± 1.8 | 101% ± 2 |  |  |  |  | EC50 ([1]; Homo sapiens, dexamethasone alone): 10.7 nM; EC50 ([1]; Homo sapiens, dexamethasone in the presence of IL-1β): 8.32 nM; EC50 ([3]; A549, R5 reporter, dexamethasone, Schild experiments (Fig. 7C), read-out: pEC50 (converted)): 11.7 nM
2 | NC(=O)Nc1sc(-c2ccc(F)cc2)cc1C(N)=O [TPCA-1, 2-[(aminocarbonyl)amino]-5-(4-fluorophenyl)-3-thiophenecarboxamide] |  |  |  |  |  |  | near complete inhibition | 2 | 2600 | below 10 μM, TPCA-1 was without effect | inhibition of IL-1β-plus-dexamethasone-induced R8 reporter activity ([1]; inhibitor 30 μM): complete inhibition; inhibition at 30 µM ([2]; Homo sapiens, A549, read-out: inhibition of IL-1β-plus-dexamethasone-induced reporter activity): 56%
3 | COc1c(Cl)cc2c([nH]c3cnccc32)c1NC(=O)c1cccnc1C.Cl.Cl [ML120B, N-(6-Chloro-7-methoxy-9H-pyrido[3,4-b]indol-8-yl)-2-methyl-3-pyridinecarboxamide dihydrochloride] |  |  |  |  |  |  | ~54% | 8.2 | ≥ 30000 | partial repressive effect | inhibition at 30 µM ([1]; Homo sapiens, A549, read-out: inhibition of IL-1β-plus-dexamethasone-induced R8 reporter activity): > 75%; reduction in reporter activity in the presence of IL-1β [2]: 27.8%; reduction in reporter activity induced by dexamethasone [2]: 34.0%; EC50 ([4]; Homo sapiens, A549, 2 h, IL-1β-induced BIRC3 mRNA, 2 h): 2950 nM; EC50 [8]: 10 µM; EC50 ([7]; Homo sapiens, A549, 2 h): 10.5 µM
4 | CCCC1O[C@@H]2C[C@H]3[C@@H]4CCC5=CC(=O)C=C[C@]5(C)[C@H]4[C@@H](O)C[C@]3(C)[C@]2(C(=O)CO)O1 (stereo partly drawn) [Budesonide, budesonide] | 5.89 | 3.47 | 12.3 | 6.61 | 9.3% | 92.2% |  |  |  |  | EMax (Fold ± SE) [1, 16]: 16.2 Fold; EMax (Fold ± SE) ([1]; glucocorticoid, naïve): 2.2 Fold; EMax (Fold ± SE) [2, 16]: 3.3 Fold; EMax (Fold ± SE) ([2]; glucocorticoid concentration-response, naïve): 2.4 Fold; recruitment of GR to FKBP5, fold [9]: 240 ± 150 fold

From article PMC12799407, “Differential RELA and GR recruitment to the BIRC3/BIRC2 locus: Molecular insight as to combinatorial regulation by proinflammatory cytokines and glucocorticoid” (Molecular Pharmacology, 2025)
